Results published in US4513007A, “Method for treating heart disease” (priority 1983, dated 1985).

What was measured:
Type in all cases: in vivo, mongrel dogs
cardiac lymphatics [1] = test: cardiac lymphangiography in normal dogs and dogs with LAD coronary artery ligation (second study); conditions: 100 mg/kg i.v.
Protocol: II. The second study was performed to evaluate the influence of calcium dobesilate on the visualization of the lymphatic vessels in the infarcted and non-infarcted zones after ligation of the left anterior descending (LAD) coronary artery in 37 mongrel dogs. In 6 dogs the coronary artery was not occluded (group I). […] Therefore a larger control series was not required. In 6 normal dogs CLS 2210 (calcium dobesilate) was administered in a single dose of 100 mg/kg by intravenous infusion in 100 ml of physiological saline or glucose. Six hours after administration of CLS 2210 (calcium dobesilate) the dogs were killed and cardiac lymphangiography was performed post-mortem (group I) as described above (8). In 7 dogs the coronary artery was occluded and lymphangiography was performed post-mortem 30 minutes after the occlusion (group II). In 6 other dogs the coronary artery was occluded and lymphangiography was performed 360 minutes after coronary artery occlusion (group III). An additional 12 dogs were treated with CLS 2210 (calcium dobesilate) in a single dose of 100 mg/kg by intravenous infusion immediately after coronary artery occlusion. In 6 of these dogs, post-mortem lymphangiography was performed 30 minutes following coronary artery occlusion (group II), and in the other 6 it was performed 360 minutes after occlusion (group III). The infarcted zone of myocardium was identified in vivo by direct inspection after coronary artery occlusion according to the usual indices, including color change and disordered contraction. […] Both the infarcted (LAD) and non-infarcted zones (the non-[…] zone was the region of the left circumflex coronary artery or LCC) were evaluated, the non-infarcted zone serving for comparison. Mean values were presented with the standard error of the mean as the index of dispersion. Statistical analysis was done, where appropriate, with the student t-test or by non-parametric methods in the form of the Wilcoxon ranks sum test or Fisher's s exact test. The null hyothesis was rejected when p was less than 0,05.

[2] = tested on: cardiac arrhythmia in dogs; test: cardiac arrhythmia in dogs induced by electrical stimulation (third study); conditions: 4 hours of stimulation (>180 beats/minute); 50-75 mg/kg i.v. bolus; untreated: tachyarrhythmia bursts, extrasystoles
Protocol: III. In a third study it was evaluated the effect of calcium dobesilate on cardiac arrhythmia in dogs induced by electrical stimulation, to produce EKG changes and cardiac lymphostasis similar to those observed in sick sinus syndrome in man (4,5). […] The other three dogs served as controls. EKG records were made 4 hours later in all animal.

[3] = tested on: infarct size, left ventricle
Protocol: IV. In a fourth study the influence of calcium dobesilate on infarct size was evaluated by the double-blind technique. The study was performed in 14 mongrel dogs of either gender weighing about 23-25 kg.
Anesthesia was induced and maintained with sodium pentobarbital (30 mg/kg) and ventilation was maintained through an endotracheal tube with a Harvard respirator providing 200-300 cc of room air/breath at a rate of 18-20/minute.
Coronary artery occlusion in all dogs was obtained by ligation of the LAD just distal to the first septal branch.
The left circumflex artery (LCC) was not ligated and its territory being non-infarcted was used as a control. After ligation of the LAD artery the chest was closed. Calcium dobesilate or the placebo were administered by intravenous perfusion during 7 days according to the following schedule:
0-1 hour after LAD ligation 100 mg/kg i.v. in 100 ml saline
2-3 hours after LAD ligation 100 mg/kg i.v. in 100 ml saline
4-6 hours after LAD ligation 75 mg/kg i.v. in 100 ml saline
7-12 hours after LAD ligation 50 mg/kg i.v. in 100 ml saline
13-24 hours after LAD ligation 50 mg/kg i.v. in 100 ml saline
2-5 days after LAD ligation 3 × 50 mg/kg i.v. in 50 ml saline
6-7 days after LAD ligation 3 × 25 mg/kg i.v. in 50 ml
After 7 days the animals were killed and the hearts were sliced in sections of 1 cm (from the apex to the base). The infarcted and non-infarcted zones of the left ventricle were planimetered to evaluate the infarct size in % in relation to the whole left ventricle. Then the infarcted and non infarcted zones were weighed to determine the size of the infarcted zone in grams in relation to the size of the whole left ventricle.

cardiac lymphatics [4] = test: cardiac lymphangiography in normal dogs and dogs with LAD coronary artery ligation (second study); conditions: intravenous infusion, dogs
cardiac lymphatics [5] = test: post-mortem cardiac lymphangiography in normal dog hearts (first study); conditions: normal myocardium
Protocol: I. In a first study the effect of calcium dobesilate was compared to Hyaluronidase on the visualization of cardiac lymphatics in normal dog hearts (not infarcted). 18 healthy mongrel dogs of either gender were divided into 3 groups each of 6 animals. […] The dogs in the second group received an intravenous injection of Hyaluronidase (500 I.U./kg) and those of the third group received an i.v. injection of calcium dobesilate (50-100 mg/kg). Post-mortem cardiac lymphangiography was performed after killing the animals and extracting the hearts 6 hours after the administration of either product. The results of the 2 groups were compared to that of the controls. The technique of cardiac lymphangiography used was that described by Szlavy L., Adams D., Hollenberg N. K. and Abrams H., published in the American Heart Journal, Vol. 100, Nr. 3, pp 323-331, Sept. 1980 (8). The technique consisted in injecting a contrast agent (30 g barium sulphate+2-5 ml of Iodamid 420) into the superficial lymphatic vessels of the heart using a Becton-Dickinson lymphangiography set. The contrast agent was injected under gentle manual pressure until the lymphatic vessels in the left ventricle were filled (multiple injections starting from the apex to the base of the heart). The heart was then X-rayed with 5-fold magnification using a 0,1 mm focal spot X-raytube and with exposure factors of 50 KV, 0,01 second and 30 mA. With this technique it was possible to visualize the 40-80 microns lymphatic vessels. A grid was applied on the lymphangiograms which consisted of lines drawn at right angles, 1 cm apart. Each 5×5 cm^2 served as a single unit as it corresponded to 1 cm^2 of the left ventricular myocardium (5-fold magnification was used for filming). A point was counted whenever a crossing coincided with a visualized lymph vessel in the lymphangiogram. In this way a quantitative index was obtained based on the number of lymph vessels/cm^2 or to the percent of the left ventricular surface area.

For `O=S(=O)(O)c1cc(O)ccc1O` [calcium dobesilate, calcium 2,5-dihydroxybenzenesulfonate], the “mean points count/cm^2, LCC zone (non infarcted)” value (cardiac lymphatics [1]; group I, normal dogs without MI, 360 min, untreated 1,84 ± 0,18, p <0,001) was 5,22 ± 0,34 points/cm^2, the “ventricular surface occupied by lymphatics” value (“ventricular surface occupied” below) (cardiac lymphatics [1]; group I, normal dogs without MI, 360 min, untreated 7,2%, listed as CLS 2210, 100 mg/kg) was 20.9% and the “ventricular surface occupied” value (cardiac lymphatics [1]; group I, normal dogs without MI, 360 min, untreated 7,2%, listed as CLS (ca. dobesilate), 100 mg/kg) was 20,9%. For the same molecule, the “mean points count/cm^2, LAD zone” value (cardiac lymphatics [1]; group I, normal dogs without myocardial infarction, 360 min, untreated 1,81 ± 0,18, p <0,001) was 5,20 ± 0,34 points/cm^2, the “point counts, normal myocardium” value (cardiac lymphatics [1]; group I, normal dogs, 6 h, p<0,001 vs untreated normal myocardium) was 5,22±0,34 points/cm^2 and the “ventricular surface occupied” value (cardiac lymphatics [1]; group II, dogs with MI, 30 min, untreated 3,1%) was 9,8%. For the same molecule, the “mean points count/cm^2, LAD zone (infarcted)” value (cardiac lymphatics [1]; group II, dogs with MI, 30 min after occlusion, untreated 0,78 ± 0,07, p <0,01, listed as CLS 2210, 100 mg/kg) was 2,43±0,06 points/cm^2, the “mean points count/cm^2, LAD zone (infarcted)” value (cardiac lymphatics [1]; group II, dogs with MI, 30 min after occlusion, untreated 0,78 ± 0,07, p <0,01, listed as CLS (ca. dobesilate), 100 mg/kg) was 2,43 ± 0,06 points/cm^2 and the “mean points count/cm^2, LCC zone (non infarcted)” value (cardiac lymphatics [1]; group II, dogs with MI, 30 min after occlusion, untreated 1,47 ± 0,07, listed as CLS 2210, 100 mg/kg) was 2,75±0,22 points/cm^2. The “mean points count/cm^2, LCC zone (non infarcted)” value (cardiac lymphatics [1]; group II, dogs with MI, 30 min after occlusion, untreated 1,47 ± 0,07, listed as CLS (ca. dobesilate), 100 mg/kg) was 2,75 ± 0,22 points/cm^2, the “ventricular surface occupied” value (cardiac lymphatics [1]; group III, dogs with MI, 360 min, untreated 3,2%) was 24,8% and the “mean points count/cm^2, LAD zone (infarcted)” value (cardiac lymphatics [1]; group III, dogs with MI, 360 min after occlusion, untreated 0,80 ± 0,08, p <0,001, listed as CLS 2210) was 6,15±0,18 points/cm^2. For the same molecule, the “mean points count/cm^2, LAD zone (infarcted)” value (cardiac lymphatics [1]; group III, dogs with MI, 360 min after occlusion, untreated 0,80 ± 0,08, p <0,001, listed as CLS (ca. dobesilate)) was 6,15 ± 0,18 points/cm^2, the “mean points count/cm^2, LCC zone (non infarcted)” value (cardiac lymphatics [1]; group III, dogs with MI, 360 min after occlusion, untreated 2,57 ± 0,05, listed as CLS 2210, 100 mg/kg) was 2,45±0,13 points/cm^2 and the “mean points count/cm^2, LCC zone (non infarcted)” value (cardiac lymphatics [1]; group III, dogs with MI, 360 min after occlusion, untreated 2,57 ± 0,05, listed as CLS (ca. dobesilate), 100 mg/kg) was 2,45 ± 0,13 points/cm^2. The “EKG tracings after rapid electrical stimulation” value [2] was “practically normal EKG tracings”, the “drug's tolerance during the experimental period” value ([3]; dog, in vivo) was “perfect” and the “side-effects attributable to the drug” value ([3]; dog, in vivo, iv) was “No side-effects”. For the same molecule, the “infarct size % of whole area of left ventricle, planimetry, MEAN” value ([3]; mean of 8 dogs, i.v. perfusion 7 days, placebo mean 54,1%) was 26,2%, the “infarct size % of left ventricle, weight, MEAN” value ([3]; mean of 8 dogs, i.v. perfusion 7 days, placebo mean 54,4%) was 27,9% and the “reduction in infarct size compared to placebo” value ([3]; planimetry and weight analysis, p<0,001) was 50 % less. For the same molecule, the “most effective infused dose” value (cardiac lymphatics [4]) was 100 mg per kg body weight, the “number of visualized lymphatics/cm^2 and equivalent left ventricular surface, comparison with Hyaluronidase and control groups” value (cardiac lymphatics [5]) was “much higher” and the “No of lymphatics per cm^2” value (cardiac lymphatics [5]; 6 h after i.v., Hyaluronidase 500 I.U./kg, calcium dobesilate 50-100 mg/kg, controls 1.64 ± 0.11, P <0.001 in relation to control) was 5.22 ± 0.34 per cm^2. For the same molecule, the “Equivalence to ventricular surface” value (cardiac lymphatics [5]; 6 h after i.v., Hyaluronidase 500 I.U./kg, calcium dobesilate 50-100 mg/kg, controls 6.6%, P <0.001) was 20.9%.
